# Literature values in US9687002B2, “Botanical antimicrobial microemulsions (BAMM)” (Indusco, Ltd., priority 2015, dated 2017).
# Test system: various fungi that commonly infect toenails
smiles,measurement,value
Cc1ccc(C(C)C)c(O)c1 [Thymol],effectiveness against fungi,effective
